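A five-concentration, 48-hour dose response in 96-well plates underlies each endpoint, interpolated linearly between surrounding concentrations. TGI is the concentration that stops growth completely.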
Legend:
Assay in all cases: NCI tumour cell line growth inhibition, 48 h
[1] = test system: A498 renal
[2] = test system: ACHN renal
[3] = test system: CAKI-1 renal
[4] = test system: HS 578T breast
[5] = test system: OVCAR-3 ovarian
[6] = test system: OVCAR-5 ovarian
[7] = test system: OVCAR-8 ovarian
[8] = test system: SK-MEL-5 melanoma
[9] = test system: SNB-19 CNS
[10] = test system: SR leukemia
[11] = test system: SW-620 colon

| Structure (SMILES) | TGI [1] | TGI [2] | TGI [3] | TGI [4] | TGI [5] | TGI [6] | TGI [7] | TGI [8] | TGI [9] | TGI [10] | TGI [11] |
| --- | --- | --- | --- | --- | --- | --- | --- | --- | --- | --- | --- |
| COC(OC)C1OCC(n2cc(F)c(=O)[nH]c2=O)C1O (stereo not given) | > 100 µM | > 100 µM | > 100 µM | > 100 µM | > 100 µM | > 100 µM | > 100 µM | > 100 µM | > 100 µM | > 100 µM | > 100 µM |
| CC(=O)OCC1OC(OCCCCCCO)C(OC(C)=O)C(OC(C)=O)C1OC(C)=O (stereo not given) | > 100 µM | > 100 µM | > 100 µM | > 100 µM | > 100 µM | > 100 µM | > 100 µM |  | > 100 µM | > 100 µM | > 100 µM |
| CCN(CC)C(=S)Nc1ccc(-c2cc3ccc(O)cc3oc2=O)cc1 | 96.5 µM | > 100 µM | > 100 µM | 71.6 µM | 78.3 µM | 79.5 µM | > 100 µM | 48.8 µM | > 100 µM | 93.5 µM | > 100 µM |
| COC(=O)C1=C(OC(=O)/C=C/c2ccccc2)C(C(=O)OC)[C@@]2(O)[C@@H](C(=O)OC)[C@H](C)C[C@@H]1[C@@H]2C(=O)OC (stereo not given in full) | 36.7 µM | > 100 µM | 32.6 µM | 50.1 µM | 54.1 µM | 46.1 µM | 46.2 µM | 87.9 µM | > 100 µM | > 100 µM | > 100 µM |
| O=[N+]([O-])c1ccc(C(Nc2ccccc2)P(c2ccccc2)c2ccccc2)cc1 (stereo not given) | > 100 µM | > 100 µM | > 100 µM | > 100 µM |  | > 100 µM | > 100 µM | > 100 µM | > 100 µM | > 100 µM | > 100 µM |
| C(=N\Nc1ccc(-c2nc3ccccc3[nH]2)cc1)/c1c(-c2ccc(Cc3ccccc3)cc2)[nH]c2ccccc12 | 33.3 µM | > 79.8 µM | > 59.8 µM | 23 µM | > 59.5 µM | > 100 µM | > 54.7 µM | > 52.8 µM | > 77.3 µM | > 100 µM | > 100 µM |
| CCOC(=O)C[n+]1cccc(C2(c3cc4ccccc4[nH]3)OCCO2)c1 | > 100 µM | > 100 µM | > 100 µM | > 100 µM | > 100 µM | > 100 µM | > 100 µM | > 100 µM | > 100 µM | > 100 µM | > 100 µM |
| Brc1ccc2c3c1[C@H]1O[C@H]1c1cccc(c1-3)[C@@H]1O[C@H]21 | 41.1 µM | 31.9 µM | 31.6 µM | 59.5 µM |  | 37.2 µM | 37.7 µM | 30.2 µM | 34.3 µM | > 100 µM |  |
| Oc1ccc(Cl)cc1-c1cc(-c2ccccc2)nc(NCN2CCCCC2)n1 | > 100 µM | > 100 µM | > 100 µM | > 100 µM | > 100 µM | > 100 µM | > 100 µM | > 100 µM | > 100 µM | > 100 µM | > 100 µM |
| CSc1c(C#N)c(N)nc2c(N=Nc3ccc(Br)cc3)c(N)nn12 | 52.9 µM | 18.5 µM | 26 µM | 5.81 µM | 6.77 µM | 33.3 µM | 23.4 µM | 40.2 µM | 69.6 µM | 6.76 µM | 12.7 µM |
| CC12CC3OC(=O)C1COC14OC5(C2C1=O)C(O)(CCC1C4CC2OC24CC=CC(=O)C14C)C(=O)OC35C (stereo not given) | 43.3 µM | 30.8 µM | 25.8 µM | > 100 µM | 28.7 µM | 34.9 µM | > 100 µM | 11.5 µM | 44.9 µM | 48.3 µM | 34.5 µM |
| CSc1cc(-c2ccccn2)nc(-c2ccccn2)c1 | 2.76 µM | 0.977 µM | 1.81 µM | 48.9 µM | 5 µM | 9.46 µM | 12.5 µM | 4.07 µM | > 50.5 µM | > 100 µM | 16.6 µM |
| O=c1cc(NNc2cccc(F)c2)[nH]c(=O)[nH]1 | > 100 µM | > 100 µM | 29.9 µM | > 100 µM | 30.1 µM | > 100 µM |  | > 100 µM | > 100 µM | 61.7 µM | 34.5 µM |
| CCCCCc1cc2cc3c(c(O)c2c(=O)[nH]1)C1(CCC3)C(O)=c2c(=O)c3c(=O)cc(OC)c(=O)c=3c(=O)c2=C1O (stereo not given) | 4.58 µM | 2.25 µM | 2.8 µM | 5.42 µM | 2.21 µM | 4.47 µM | 3.25 µM | 1.69 µM | 3.86 µM | 4.27 µM | 3.04 µM |
| COc1ccc(/C=C/C(=O)c2cc(C(C)(C)C)c(O)c(C(C)(C)C)c2)cc1OC | > 79.7 µM | 99.3 µM | > 90 µM | > 77.2 µM | > 100 µM | > 85.8 µM | > 100 µM | 20.7 µM | 64.1 µM | 5.83 µM | > 100 µM |
| NNc1nncc2[nH]cnc12 | > 100 µM | > 100 µM | > 100 µM | > 100 µM | > 100 µM | > 100 µM | > 100 µM | > 100 µM | > 100 µM | > 100 µM | > 100 µM |
| COC12CCCN1c1ccn(Cc3ccccc3)c(=O)c1C2=O (stereo not given) | > 100 µM | > 100 µM | > 100 µM | > 100 µM | > 100 µM | > 100 µM | > 100 µM | > 100 µM | > 100 µM | > 100 µM | > 100 µM |
| COc1ccc(/C=C2\CCS(=O)(=O)c3ccccc3C2=O)cc1OC | 73.7 µM | > 100 µM | > 100 µM | > 100 µM | > 100 µM | > 100 µM | 43.5 µM |  | > 100 µM | 89.1 µM | > 100 µM |
| O=C(CCCCCCCCC(=O)N1C(=O)CC(=O)N(c2ccccc2)C1=S)N1C(=O)CC(=O)N(c2ccccc2)C1=S | > 100 µM | > 100 µM | > 100 µM | > 100 µM | > 100 µM | > 100 µM | > 100 µM | > 100 µM | > 100 µM | > 100 µM |  |
| CCCCCc1nnc(NS(=O)(=O)c2ccc(NC(=O)OCC(C)C)cc2)s1 | 24.6 µM | > 100 µM | > 100 µM | > 100 µM | 86.9 µM | > 100 µM | > 100 µM | 63.7 µM | > 100 µM | 36.9 µM | > 100 µM |
| C=C1c2nc3ccccc3n2C=C(c2ccc(C)cc2)N1c1ccc(C)cc1 | > 100 µM | > 100 µM | > 100 µM | > 100 µM | > 100 µM | > 100 µM | > 100 µM | > 69.8 µM | > 100 µM | > 74.3 µM | > 100 µM |
| COc1ccc2c(c1)C/C(=C\c1cccc3ccccc13)C2=O | > 100 µM | > 100 µM | > 100 µM | > 100 µM | 50.4 µM | > 100 µM | > 100 µM | > 100 µM | > 100 µM | > 100 µM | > 100 µM |
| C=CCc1cc(-c2cc(CC=C)c(O)c(CN(CC)CC)c2)cc(CN(CC)CC)c1O | > 100 µM | > 100 µM | > 100 µM | > 100 µM | > 100 µM | 52.6 µM | > 100 µM | 25.9 µM | > 100 µM | 70.6 µM | 76.2 µM |
| Cc1cn(C2CC(N)C(C(=O)NCC(=O)O)O2)c(=O)[nH]c1=O (stereo not given) | > 100 µM | > 100 µM | > 100 µM | > 100 µM | > 100 µM | > 100 µM |  | > 100 µM | > 100 µM | > 100 µM | > 100 µM |
| COc1cc2oc(=O)cc(C)c2cc1O | > 100 µM | > 100 µM | > 100 µM | > 100 µM | > 100 µM | > 100 µM | > 100 µM | > 100 µM | > 100 µM | > 100 µM | > 100 µM |
| C[n+]1c(-c2ccc(/C=N/Nc3ccnc(N/N=C/c4ccc(-c5cn6ccsc6[n+]5C)cc4)n3)cc2)cn2ccsc21 | 65.3 µM | 78.6 µM | 66.6 µM | > 100 µM | > 100 µM | > 100 µM | > 100 µM | 54.5 µM | > 100 µM | > 100 µM | > 100 µM |
| O=C(CCCCCC(=O)N1CC(CCl)c2ccc([N+](=O)[O-])cc21)N1CC(CCl)c2ccc([N+](=O)[O-])cc21 (stereo not given) | > 100 µM | > 100 µM | > 100 µM | > 100 µM | > 100 µM | > 100 µM | > 100 µM | > 100 µM | > 100 µM | 88.8 µM | > 100 µM |
| COc1ccc(NC(=O)CC(=O)n2nc(C)c(N=Nc3cccc(C)c3)c2C)cc1 | > 100 µM | > 100 µM | > 100 µM | > 100 µM | > 100 µM | > 100 µM | > 100 µM | > 100 µM | > 100 µM | > 100 µM | > 100 µM |
